23 molecules from PubChem BioAssay AID208 (DTP/NCI, 2004) can be followed below.

Inconclusive results are not listed.

The assay deals with HT29 intrarenal xenograft, nude mice, tumor weight change. As to the kind of experiment: NCI In Vivo Anticancer Drug Screen. Data for tumor model HT29;CX-1 Human Adenocarcinoma (MER+) (intrarenal inoculation) in NU/NU BALB/C (nude) mice. To be noted: endpoint: mean tumor weight change, higher = larger tumour. As to the method:
The antitumor activity of compounds was measured in mice bearing transplantable tumors. Survival or tumor size were measured and the results are expressed as the measurement made in the treated group (T) divided by the measurement made in the vehicle treated control group (C). The tumor model used in this assay is HT29;CX-1 Human Adenocarcinoma (MER+) (intrarenal inoculation) in NU/NU BALB/C (nude) mice

[1] abbreviates: dose: 100.0 mg/kg/injection, schedule: Q01DX010 (sc), vehicle: Klucel (hydroxypropylcellulose) (HPC).
Setting [2] is: dose: 200.0 mg/kg/injection, schedule: Q04DX004 (sc), vehicle: saline with Tween-80.
Setting [3] is: dose: 400.0 mg/kg/injection, schedule: Q04DX004 (sc), vehicle: saline with Tween-80.
Where [4] appears, read: dose: 150.0 mg/kg/injection, schedule: Q04DX004 (sc), vehicle: saline with Tween-80.
Where [5] appears, read: dose: 300.0 mg/kg/injection, schedule: Q04DX004 (sc), vehicle: saline with Tween-80.
[6] abbreviates: dose: 600.0 mg/kg/injection, schedule: Q04DX004 (sc), vehicle: saline with Tween-80.

Turning to `CSc1ncnc2c1ncn2C1OC(CO)C(O)C1O` (centres undefined), the T/C (dose: 37.5 mg/kg/injection, schedule: Q04DX004 (sc), vehicle: saline + alcohol) is 101 % of control; the T/C (dose: 75.0 mg/kg/injection, schedule: Q04DX004 (sc), vehicle: saline + alcohol) is 30 % of control; the T/C (dose: 150.0 mg/kg/injection, schedule: Q04DX004 (sc), vehicle: saline + alcohol) was 12 % of control.
Regarding `Nc1nc(=S)c2ncn(C3CC(O)C(CO)O3)c2[nH]1` (centres undefined), the T/C (dose: 1.88 mg/kg/injection, schedule: Q01DX010 (sc), vehicle: saline with Tween-80) is 164 % of control.
Take `Cc1cc(N(CC(C)Br)CC(C)Br)ccc1N=Nc1ccccc1C(=O)O` (centres undefined): the T/C (dose: 3.13 mg/kg/injection, schedule: Q01DX010 (sc), vehicle: saline with Tween-80) is 65 % of control; the T/C (dose: 6.25 mg/kg/injection, schedule: Q01DX010 (sc), vehicle: saline with Tween-80) is 55 % of control; the T/C (dose: 12.5 mg/kg/injection, schedule: Q01DX010 (sc), vehicle: saline with Tween-80) was 57 % of control.
As to `Cn1cnc([N+](=O)[O-])c1S(=O)(=O)NCN1CCOCC1`, the T/C under setting [1] was 80 % of control.
As for `[N-]=[N+]=[N-]`, the T/C (dose: 1.5 mg/kg/injection, schedule: Q04DX004 (ip), vehicle: water) is 79 % of control; the T/C (dose: 3.0 mg/kg/injection, schedule: Q04DX004 (ip), vehicle: water) is 90 % of control; the T/C (dose: 6.0 mg/kg/injection, schedule: Q04DX004 (ip), vehicle: water) was 59 % of control; the T/C (dose: 12.0 mg/kg/injection, schedule: Q04DX004 (ip), vehicle: water) is 62 % of control.
For `CC[As](=O)(O)CC`, the T/C (dose: 100.0 mg/kg/injection, schedule: Q04DX004 (sc), vehicle: saline) is 61 % of control.
Regarding `NCCCNCCSP(=O)(O)O`, the T/C (dose: 200.0 mg/kg/injection, schedule: Q04DX004 (sc), vehicle: saline) was 102 % of control.
For `Cc1ccc(S(=O)(=O)N/N=C/C(=O)O)cc1`, the T/C was 87 % of control under setting [1]; 50 % of control (dose: 200.0 mg/kg/injection, schedule: Q01DX010 (sc), vehicle: Klucel (hydroxypropylcellulose) (HPC)); 96 % of control (dose: 400.0 mg/kg/injection, schedule: Q01DX010 (sc), vehicle: Klucel (hydroxypropylcellulose) (HPC)); 106 % of control (dose: 800.0 mg/kg/injection, schedule: Q01DX010 (sc), vehicle: Klucel (hydroxypropylcellulose) (HPC)).
Consider `CC(=O)Oc1ccc[nH]c1=O`, for which the T/C is 88 % of control under setting [2]; 104 % of control under setting [3]; 122 % of control (dose: 800.0 mg/kg/injection, schedule: Q04DX004 (sc), vehicle: saline with Tween-80).
Turning to `O=C1CCC(=O)N1CO`, the T/C is, setting by setting: (dose: 150.0 mg/kg/injection, schedule: Q04DX004 (sc), vehicle: saline) 66 % of control; (dose: 300.0 mg/kg/injection, schedule: Q04DX004 (sc), vehicle: saline) 80 % of control; (dose: 600.0 mg/kg/injection, schedule: Q04DX004 (sc), vehicle: saline) 74 % of control.
For `Nc1nc(N)c(N=O)c(Nc2ccc(Br)cc2)n1`, the T/C is 106 % of control under setting [4]; 83 % of control under setting [5]; 120 % of control under setting [6]; 115 % of control (dose: 1200.0 mg/kg/injection, schedule: Q04DX004 (sc), vehicle: saline with Tween-80).
`FC(F)(F)c1nc2nc(Cl)c(Cl)nc2[nH]1`: the T/C reads like this: (dose: 75.0 mg/kg/injection, schedule: Q04DX004 (sc), vehicle: saline with Tween-80) 112 % of control; under setting [4], 42 % of control; under setting [5], 71 % of control.
For the molecule `O=S(CCCl)CCCl`, the T/C is 98 % of control (dose: 25.0 mg/kg/injection, schedule: Q04DX004 (sc), vehicle: Klucel (hydroxypropylcellulose) (HPC)) and 64 % of control (dose: 50.0 mg/kg/injection, schedule: Q04DX004 (sc), vehicle: Klucel (hydroxypropylcellulose) (HPC)).
As for `Nc1nc(-c2ccccc2)c(Br)c(=O)[nH]1`, the T/C is 124 % of control under setting [5]; 117 % of control under setting [6]; 102 % of control (dose: 2400.0 mg/kg/injection, schedule: Q04DX004 (sc), vehicle: saline with Tween-80).
On to `CC(=O)OC(C)C1C2=C(C(=O)CC1(C)O)C(=O)c1c(ccc(-c3ccc4c(c3O)C(=O)C3=C(C4=O)C(C(C)OC(C)=O)C(C)(O)CC3=O)c1O)C2=O` (centres undefined), for which the T/C is 94 % of control (dose: 0.94 mg/kg/injection, schedule: Q04DX004 (ip), vehicle: saline with Tween-80); 92 % of control (dose: 1.9 mg/kg/injection, schedule: Q04DX004 (ip), vehicle: saline with Tween-80); 88 % of control (dose: 3.75 mg/kg/injection, schedule: Q04DX004 (ip), vehicle: saline with Tween-80); 101 % of control (dose: 7.5 mg/kg/injection, schedule: Q04DX004 (ip), vehicle: saline with Tween-80); 162 % of control (dose: 30.0 mg/kg/injection, schedule: Q04DX004 (ip), vehicle: saline with Tween-80).
For the molecule `COc1cc(O)c2c(O)c3c(c4c2c1[C@]1(C4)C(C)=CCCC1(C)C)[C@H](O)[C@@]1(O)CC(=O)C(C(N)=O)=C(O)[C@@]1(O)C3=O`, the T/C by setting is: (dose: 9.4 mg/kg/injection, schedule: Q04DX004 (ip), vehicle: saline with Tween-80) 59 % of control; (dose: 18.8 mg/kg/injection, schedule: Q04DX004 (ip), vehicle: saline with Tween-80) 87 % of control; (dose: 37.5 mg/kg/injection, schedule: Q04DX004 (ip), vehicle: saline with Tween-80) 101 % of control.
For the molecule `C[N+](C)(C)c1ncnc2nc[nH]c12`, the T/C is 111 % of control (dose: 50.0 mg/kg/injection, schedule: Q01DX010 (sc), vehicle: saline); 83 % of control (dose: 100.0 mg/kg/injection, schedule: Q01DX010 (sc), vehicle: saline); 29 % of control (dose: 200.0 mg/kg/injection, schedule: Q01DX010 (sc), vehicle: saline).
On to `O.O.[NH-]C1CCCCC1[NH-].[Pt+2]` (centres undefined), for which the T/C is, setting by setting: (dose: 5.0 mg/kg/injection, schedule: Q01DX010 (sc), vehicle: dextrose) 98 % of control; (dose: 10.0 mg/kg/injection, schedule: Q01DX010 (sc), vehicle: dextrose) 75 % of control; (dose: 20.0 mg/kg/injection, schedule: Q01DX010 (sc), vehicle: dextrose) 34 % of control; (dose: 40.0 mg/kg/injection, schedule: Q01DX010 (sc), vehicle: dextrose) 19 % of control.
Consider `C=C(C)C(=O)O[C@H]1CC2=C[C@@H](C[C@@]3(C)O[C@@H]3[C@H]3OC(=O)C(=C)[C@@H]31)OC2=O`, for which the T/C (dose: 75.0 mg/kg/injection, schedule: Q04DX004 (sc), vehicle: Klucel (hydroxypropylcellulose) (HPC)) was 75 % of control and the T/C (dose: 150.0 mg/kg/injection, schedule: Q04DX004 (sc), vehicle: Klucel (hydroxypropylcellulose) (HPC)) is 121 % of control.
Consider `O=c1[nH]c2c(ccc3cnccc32)c2c1CCC2`, for which the T/C is 67 % of control (dose: 225.0 mg/kg/injection, schedule: Q04DX004 (sc), vehicle: suspension in saline); 67 % of control (dose: 450.0 mg/kg/injection, schedule: Q04DX004 (sc), vehicle: suspension in saline); 73 % of control (dose: 900.0 mg/kg/injection, schedule: Q04DX004 (sc), vehicle: suspension in saline); 53 % of control (dose: 1800.0 mg/kg/injection, schedule: Q04DX004 (sc), vehicle: suspension in saline).
With `CC[C@@]1(O)C(=O)OCc2c1cc1n(c2=O)Cc2cc3cc(O)ccc3nc2-1`, the T/C by setting is: (dose: 8.0 mg/kg/injection, schedule: Q04DX004 (sc), vehicle: saline) 2 % of control; (dose: 16.0 mg/kg/injection, schedule: Q04DX004 (sc), vehicle: saline) -74 % of control; (dose: 32.0 mg/kg/injection, schedule: Q04DX004 (sc), vehicle: saline) -92 % of control.
Consider `CCCCNCCCNCCCNC(=O)c1csc(-c2csc(CCNC(=O)C(NC(=O)C(C)C(O)C(C)NC(=O)C(NC(=O)c3nc(C(CC(N)=O)NCC(N)C(N)=O)nc(N)c3C)C(OC3OC(CO)C(O)C(O)C3OC3OC(CO)C(O)C(OC(N)=O)C3O)c3cnc[nH]3)C(C)O)n2)n1` (centres undefined), for which the T/C was 30 % of control (dose: 8.0 mg/kg/injection, schedule: Q01DX010 (sc), vehicle: saline) and -32 % of control (dose: 32.0 mg/kg/injection, schedule: Q01DX010 (sc), vehicle: saline).
Take `Nc1nc2ccc(NCc3ccc(C(=O)NC(CCC(=O)O)C(=O)O)cc3)cc2c(=O)[nH]1` (centres undefined): the T/C is, setting by setting: under setting [2], 92 % of control; under setting [3], 105 % of control.
